Experimental findings from patent US20220235343A1, “NOVEL ADP-RIBOSYL CYCLASE AND INHIBITOR THEREOF” (INDUSTRIAL COOPERATION FOUNDATION CHONBUK NATIONAL …, priority 2019, published 2022) are described below.

The subject of test [1] is TGF-β1, fibronectin and collagen IV in kidney tissue. The test can be described thus: Expression of TGF-β1, fibronectin and collagen IV in kidney tissue of renal disease mouse model (immunofluorescence). It counts as in vivo. As to conditions: STZ mice, DCQA i.p. every day for 6 weeks, FIG. 8. As for the experimental part: The change in the expression of TGF-β1, fibronectin and collagen IV in the kidney tissue of a renal disease mouse model was measured by the method reported by Kim S Y et al. [Kim S Y, Park K H, Gul R, Jang K Y, Kim U H. Am. J. Physiol. Renal Physiol. 296: F291-F297, 2009].
Specifically, 0.2 mL of 50 mM citrate buffer (pH 4.8) (control group and DCQA group) or 200 μL of 5 mg/mL streptozotocin (STZ, Sigma-Aldrich (USA)) dissolved in 50 mM citrate buffer (STZ group and STZ+DCQA group) was intraperitoneally injected to C57BL/6J mice. Blood glucose was measured from day 2 after the STZ injection and the mice whose blood glucose level was 300 mg/dL were divided into an STZ group and an STZ+DCQA group. […] In order to investigate the possibility as a therapeutic agent for a renal disease, the mouse was sacrificed and serum and kidney were taken. Some of the extracted kidney was fixed in 10% formalin. The kidney tissue fixed in 10% formalin was cut into kidney tissue sections on a slide glass using a cryostat microtome. The kidney tissue sections were washed with a TTBS (Tris-buffered saline (TBS) with 0.1% Tween 20) buffer and then incubated with a TTBS buffer containing 1% bovine serum albumin (BSA) for 1 hour. The tissues were reacted with primary antibodies (TGF-β1 (Santa Cruz, USA), fibronectin (Santa Cruz, USA) and collagen IV (Abcam, UK)) diluted in a TTBS buffer containing 1% bovine serum albumin (BSA) to 1:200 at 4° C. for 12 hours or longer. After washing the tissues that reacted with the primary antibodies 3 times with a TTBS buffer, they were reacted with FITC-labeled secondary antibodies diluted in a TTBS buffer to 1:200 in the dark at room temperature for 1 hour. Then, after washing 3 times with a TTBS buffer, a cover glass was attached using a mounting solution. The stained kidney tissue was observed using a fluorescence microscope (Carl Zeiss, Germany) for observing green fluorescence.

The target of test [2] is T1, new ADP-ribosyl cyclase (ADPRC) of SEQ ID NO 1 (Mus musculus, UniProt P14094).
T1 construct: FLAG (N); made in house; host or cells: HEK293 cells or MES13 cells (transient transfection)
The test can be described thus: Inhibition of NAD glycohydrolase (NADase) activity of new ADPRC. The format is biochemical. As to conditions: as compared to the control group; ε-NAD substrate, 37° C. 1 hour; inhibitor concentration not given; FIG. 5. As for the experimental part: In order to investigate the ADP-ribosyl cyclase (ADPRC) activity of SEQ ID NO 1, a FLAG-ADPRC plasmid was prepared by ligating a cDNA sequence encoding ADPRC into a FLAG-CMV-2 vector and the overexpression of new ADPRC was induced by treating HEK293 cells or MES13 cells using a transfection reagent. The overexpressed new ADPRC was lysed with a lysis buffer. 45 μL of the lysed sample was treated with 5 μL of 2 mM ε-NAD (nicotinamide 1,N6-ethenoadenine dinucleotide) and incubated at 37° C. for 1 hour. Then, the enzyme-substrate reaction was stopped by treating with 50 μL of 10% trichloroacetic acid. After centrifuging for 10 minutes and adding 80 μL of the supernatant to 720 μL of 0.1 M sodium phosphate buffer, absorbance was measured at 297 nm (excitation) and 410 nm (emission) with a fluorescence spectrometer.
In order to find an inhibitor which inhibits the activation of new ADP-ribosyl cyclase (ADPRC) of SEQ ID NO 1, 5 μL of each of 4,4′-dihydroxyazobenzene (4-DHAB, TCI (Japan)), 2,2′-dihydroxyazobenzene (2-DAB, Sigma-Aldrich (USA)), 2-(3,4-dihydroxyphenyl)-3,5,7-trihydroxychromen-4-one (Quercetin, Sigma-Aldrich (USA)) and San4825 (synthesized by Kannt A et al. [Kannt A, Sicka K, Kroll K, Kadereit D, Gogelein H. Naunyn. Schmiedebergs. Arch. Pharmacol. 385: 717-727, 2012], China) and 2-(1,3-benzoxazol-2-ylamino)-1-methylquinazoline-4(1H)-one (2-BMQ) and 1,4-dicaffeoylquinic acid (1,4-DCQA, Biopurify (China), hereinafter DCQA), which were newly found through screening, was reacted with 40 μL of new ADPRC in iced water for 15 minutes. Then, reaction was conducted at 37° C. for 1 hour after treating with 5 μL of 2 mM ε-NAD (nicotinamide 1,N6-ethenoadenine dinucleotide). Then, the enzyme-substrate reaction was stopped by treating with 50 μL of 10% trichloroacetic acid. After centrifuging for 10 minutes and adding 80 μL of the supernatant to 720 μL of 0.1 M sodium phosphate buffer, absorbance was measured at 297 nm (excitation) and 410 nm (emission) using a fluorescence spectrometer.

Test [3] concerns diabetic renal disease mouse model (STZ, C57BL/6J mice). The test can be described thus: Blood glucose, kidney-to-body weight ratio, creatinine clearance rate and urine albumin level in STZ renal disease mouse model. It counts as in vivo. Particulars: STZ+DCQA group vs STZ, DCQA 9 μg/mL 100 μL intraperitoneally every day for 6 weeks. As for the experimental part: The blood glucose, kidney-to-body weight ratio, creatinine clearance rate and urine albumin level in a renal disease mouse model were measured by the method reported by Kim S Y et al. [Kim S Y, Park K H, Gul R, Jang K Y, Kim U H. Am. J. Physiol. Renal Physiol. 296: F291-F297, 2009]
Specifically, 0.2 mL of 50 mM citrate buffer (pH 4.8) (control group and DCQA group) or 200 μL of 5 mg/mL streptozotocin (STZ, Sigma-Aldrich (USA)) dissolved in 50 mM citrate buffer (STZ group and STZ+DCQA group) was intraperitoneally injected to C57BL/6J mice. Blood glucose was measured from day 2 after the STZ injection and the mice whose blood glucose level was 300 mg/dL were divided into an STZ group and an STZ+DCQA group. […] On the last day, the mouse was put in a metabolic cage and urine was collected for 24 hours.
Then, the body weight and blood glucose of the mouse were measured (FIG. 6A). In addition, in order to investigate the possibility as a therapeutic agent for a renal disease, the mouse was sacrificed and serum and kidney were taken. After measuring kidney-to-body weight ratio (FIG. 6B), some of the kidney was fixed in 10% formalin for fluorescent staining and H&E staining, and the remainder was subjected to ADPR cyclase activity and cADPR concentration measurement. Creatinine clearance rate was calculated by measuring the creatinine levels in urine and serum using a creatinine assay kit (Bioassay Systems, USA) (FIG. 6C), and urine albumin level was measured using an albumin assay kit (Bioassay Systems, USA) (FIG. 6D).

Turning to `O=C(/C=C/c1ccc(O)c(O)c1)OC1[C@H](O)CC(OC(=O)/C=C/c2ccc(O)c(O)c2)(C(=O)O)C[C@H]1O` (some centres unmarked) [DCQA, 1,4-dicaffeoylquinic acid], in test [1], the “expression level of TGF-β1 increased by STZ, decreased by DCQA” value is listed as “to the level of the control group”; the “expression level of collagen IV increased by STZ, decreased by DCQA” value is “to the level of the control group”; the “expression level of fibronectin increased by STZ, decreased by DCQA” value is listed as “to the level of the control group”. In test [2], the “NAD glycohydrolase (NADase) activity inhibited” value stood at 79.64%. Also, in test [3] (FIG. 6A), the blood glucose entry was “did not show decreased in blood glucose”. For the same compound, in test [3] (FIG. 6B), the “kidney to body weight” value is on record as “significant decrease in kidney to body weight”. In test [3] (FIG. 6C), the creatinine clearance rate result is given as “significant increase in creatinine clearance rate”. In test [3] (FIG. 6D), the urine albumin level result was “significant decrease in the urine albumin level”.
